Measured values as given in ChEMBL document CHEMBL2346571 (Bioorg Med Chem, 2013).
Calls of active or inactive are those of the source. The rule behind the calls is not given here.

How the values were obtained:
[1] = target: Cannabinoid receptor 2 (Homo sapiens, UniProt P34972); experiment: Displacement of [3H]-CP55940 from human CB2 receptor after 90 mins by liquid scintillation spectrophotometer analysis
[2] = target: Cannabinoid receptor 1 (Homo sapiens, UniProt P21554); experiment: Displacement of [3H]-CP55940 from human CB1 receptor after 90 mins by liquid scintillation spectrophotometer analysis
[3] = system: Rattus norvegicus; experiment: Antiobesity activity in Wistar rat assessed as reduction of food intake at 3 mg/kg, ip after 30 to 240 mins; format: functional, organism-based; parameters: dose 3 mg/kg
[4] = system: Rattus norvegicus; experiment: Increase of food intake in Wistar rat at 3 mg/kg, ip after 30 to 240 mins; format: functional, organism-based; parameters: dose 3 mg/kg
[5] = system: Rattus norvegicus; experiment: Antiobesity activity in Wistar rat assessed as reduction of food intake at 3 mg/kg, ip after 30 mins; format: functional, organism-based; parameters: dose 3 mg/kg
[6] = system: Rattus norvegicus; experiment: Antiobesity activity in Wistar rat assessed as reduction of food intake at 3 mg/kg, ip after 60 to 240 mins; format: functional, organism-based; parameters: dose 3 mg/kg
[7] = system: Rattus norvegicus; experiment: Antiobesity activity in Wistar rat assessed as reduction of food intake at 3 mg/kg, ip; format: functional, organism-based; parameters: dose 3 mg/kg

Chain of Cannabinoid receptor 2 (P34972 whole entry): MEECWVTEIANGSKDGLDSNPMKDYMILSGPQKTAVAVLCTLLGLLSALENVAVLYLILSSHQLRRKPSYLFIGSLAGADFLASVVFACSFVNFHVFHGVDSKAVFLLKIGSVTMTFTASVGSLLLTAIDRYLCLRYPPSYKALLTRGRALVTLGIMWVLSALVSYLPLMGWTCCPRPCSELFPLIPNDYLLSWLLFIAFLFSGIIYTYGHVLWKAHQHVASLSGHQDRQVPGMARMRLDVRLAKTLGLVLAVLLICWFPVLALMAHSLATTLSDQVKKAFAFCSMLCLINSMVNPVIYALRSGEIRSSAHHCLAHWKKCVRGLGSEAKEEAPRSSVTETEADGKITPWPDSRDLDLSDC
Chain of Cannabinoid receptor 1 (P21554 whole entry): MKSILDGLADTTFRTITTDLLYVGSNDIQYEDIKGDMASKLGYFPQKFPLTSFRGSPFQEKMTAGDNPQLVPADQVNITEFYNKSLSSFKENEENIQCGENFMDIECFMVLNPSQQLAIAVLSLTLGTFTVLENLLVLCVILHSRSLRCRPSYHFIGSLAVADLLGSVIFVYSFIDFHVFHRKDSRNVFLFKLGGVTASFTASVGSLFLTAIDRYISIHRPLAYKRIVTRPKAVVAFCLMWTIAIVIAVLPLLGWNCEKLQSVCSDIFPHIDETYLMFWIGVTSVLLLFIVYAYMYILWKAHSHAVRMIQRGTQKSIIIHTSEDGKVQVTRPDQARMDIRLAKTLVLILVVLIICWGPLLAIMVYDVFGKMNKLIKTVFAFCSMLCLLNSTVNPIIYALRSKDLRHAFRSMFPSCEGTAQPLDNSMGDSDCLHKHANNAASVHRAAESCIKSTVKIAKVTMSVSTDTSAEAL

Row | Structure (SMILES) | Ki [1] | Ki [2] | Activity [3] | Activity [4] | Activity [5] | Activity [6] | Activity [7]
1 | CCCCCCCCCCCCCCCCNC(=O)c1cc(-c2ccccc2)n(-c2ccccc2)n1 | > 10 µM | > 40 µM | Active |  |  |  | 
2 | CCCCCCc1cc(-c2ccc(Cl)cc2)n(-c2ccc(Cl)cc2Cl)n1 | > 40 µM | > 40 µM |  |  |  |  | 
3 | CCCCCCCCCCCCCCCCNC(=O)c1nc(-c2ccc(Cl)cc2)n(-c2ccc(Cl)cc2)n1 | > 10 µM | > 10 µM | Active |  |  |  | 
4 | Cc1c(C(=O)NN2CCCCC2)nn(-c2ccccc2)c1-c1ccccc1 | 18.2 µM | 9.69 µM |  | Active |  |  | 
5 | CCCCCCc1nc(-c2ccc(Cl)cc2)n(-c2ccc(Cl)cc2Cl)n1 | 3.08 µM | 0.829 µM |  |  |  |  | 
6 | CCCCCCCC/C=C\CCCCCCCCNC(=O)c1nc(-c2ccc(Cl)cc2)n(-c2ccc(Cl)cc2)n1 | > 40 µM | > 40 µM | inactive |  |  |  | 
7 | O=C(NN1CCCCC1)c1cc(-c2ccccc2)n(-c2ccccc2)n1 | 27.9 µM | 4.59 µM |  |  | inactive | Active | 
8 | CCCCCc1cc(-c2ccccc2)n(-c2ccccc2)n1 | 2.94 µM | 6.16 µM |  |  |  |  | 
9 | CCCCCCCC/C=C\CCCCCCCCNC(=O)c1nn(-c2ccccc2)c(-c2ccccc2)c1C | > 40 µM | > 40 µM | inactive |  |  |  | 
10 | CCCCCc1cc(-c2ccc(Cl)cc2)n(-c2ccc(Cl)cc2Cl)n1 | 0.458 µM | > 40 µM |  |  |  |  | Active
11 | CCCCCCCCCCCCCCCCNC(=O)c1nn(-c2ccccc2)c(-c2ccccc2)c1C | > 10 µM | > 10 µM | Active |  |  |  | 
12 | CCCCCCCC/C=C\CCCCCCCCNC(=O)c1cc(-c2ccccc2)n(-c2ccccc2)n1 | > 40 µM | > 40 µM | inactive |  |  |  | 
